In patent US8889671B2, “Compounds and methods for treating bacterial infections” (AstraZeneca AB, priority 2013, dated 2014):
In brackets after ≈: the same amount, converted by molar mass. Read-outs that look alike come from different tables or passages of the source.

Experiments:
Klebsiella pneumoniae = experiment: Susceptibility testing (MIC) Assay 2, broth microdilution; type: cell-based; settings: clinical isolate, mucoid, read-out: Kpn MIC
Method: (§1) Minimum Inhibitory Concentrations (MICs) were determined by the broth microdilution method in accordance with the Clinical and Laboratory Standards Institute (CLSI) guidelines. In brief, organism suspensions were adjusted to a 0.5 McFarland standard to yield a final inoculum between 3×10^5 and 7×10^5 colony-forming units (CFU)/mL. Bacterial inocula were generally prepared in sterile, cation adjusted Mueller-Hinton Broth (Becton Dickinson) which included Escherichia coli, Klebsiella pneumoniae, and Pseudomonas aeruginosa. Haemophilus influenzae bacterial inocula were prepared in sterile, cation adjusted Mueller-Hinton Broth (Becton Dickinson) containing 0.5% yeast extract (Becton Dickinson) plus 30 mL of 15 μg/mL Bovine Hematin stock (Sigma), and 3 mL of 15 μg/mL β-nicotinamide adenine dinucleotide (Sigma). Strains of Neisseria were tested for MICs using agar dilution methodology in accordance with CLSI guidelines. For broth microdilution testing, an inoculum volume of 100 μL was added to wells (using a Tecan EVO robot) containing 2 μL of DMSO containing 2-fold serial dilutions of drug. All inoculated microdilution panels were incubated in ambient air at 35° C. for 18-24 hours. Following incubation, the lowest concentration of the drug that prevented visible growth as read at OD600 nm and confirmed by a visual read using a test reading mirror was recorded as the MIC. Performance of the assay was monitored by the use of laboratory quality-control strains and commercially available control compounds with defined MIC spectrums, in accordance with CLSI guidelines. Table 3 provides the MIC results (μM) of Examples 1-77 tested in Assay 2. Table 4 provides the MIC (μg/mL) results of Examples 78-80 tested in Assay 2.

Escherichia coli = experiment: as above; type: cell-based; settings: K12, read-out: Eco MIC
Method: as §1

Pseudomonas aeruginosa = experiment: as above; type: cell-based; settings: for MIC: PAO1, read-out: Pae MIC
Method: as §1

Haemophilus influenzae = experiment: as above; type: cell-based; settings: ATCC 51907, in vivo strain, read-out: Hin MIC
Method: as §1

[1] = biological target: Escherichia coli DNA gyrase A/B tetramer (Escherichia coli (strain K12), UniProt P0AES4+P0AES6); experiment: DNA gyrase supercoiling activity fluorescence polarisation assay; type: biochemical; settings: Eco Gyr FP Mean IC50, E. coli DNA gyrase supercoiling, 0.3 mM ATP
Method: In a black, 384-well polystyrene assay plate, 30 microliters/well of 5 nM Escherichia coli DNA gyrase A/B tetramer and 130 micrograms/mL of topologically relaxed plasmid containing the triplex-forming sequence
in an assay buffer consisting of 35 mM Tris-HCl (pH 7.5), 24 mM KCl, 4 mM MgCl2, 2 mM dithiothreitol, 1.8 mM spermidine, 5% (v/v) glycerol, 200 nM bovine serum albumin, 0.8% dimethylsulfoxide, and 0.3 mM ATP were incubated at ambient temperature for (typically 30 minutes) in the absence or presence of 5-10 different concentrations of test compound. The supercoiling reactions were quenched by the addition of 10 microliters/well of 40 nM oligodeoxynucleotide probe in 3× triplex-forming buffer consisting of 150 mM NaCl, and 150 mM sodium acetate at pH 3.5. The oligodeoxynucleotide probe was 5′-BODIPY-FL-labeled
After 60 minutes, the fluorescence anisotropy of the BODIPY-FL was measured in a Tecan Ultra plate reader, using 485 nm excitation and 535 nm emission filters equipped with polarizers. The IC50 was determined by nonlinear regression using two control reactions.

Staphylococcus aureus = experiment: Susceptibility testing (MIC) Assay 1, broth microdilution; type: cell-based
Method: (§2) Minimum Inhibitory Concentrations (MICs) were determined by the broth microdilution method in accordance with the Clinical and Laboratory Standards Institute (CLSI) guidelines. In brief, organism suspensions were adjusted to a 0.5 McFarland standard to yield a final inoculum between 3×10^5 and 7×10^5 colony-forming units (CFU)/mL. Bacterial inocula were prepared for most organisms in sterile, cation adjusted Mueller-Hinton Broth (Beckton Dickinson). The streptococci were prepared as above in cation adjusted Mueller-Hinton Broth to which 2.5% lysed horse blood (Hema Resource & Supply Inc.) was added. An inoculum volume of 100 μL was added to wells (using a Tecan EVO robot) containing 2 μL of DMSO containing 2-fold serial dilutions of drug. All inoculated microdilution trays were incubated in ambient air at 35° C. for 18-24 hours. Following incubation, the lowest concentration of the drug that prevented visible growth as read at OD600 nm and confirmed by a visual read using a test reading mirror was recorded as the MIC. Performance of the assay was monitored by the use of laboratory quality-control strains and commercially available control compounds with defined MIC spectrums, in accordance with CLSI guidelines. Table 1 provides the MIC results (μM) of Examples 1-77 tested in Assay 1. Table 2 provides the MIC (μg/mL) results of Examples 78-80 tested in Assay 1.

Streptococcus pneumoniae = experiment: as above; type: cell-based
Method: as §2

Streptococcus pyogenes = experiment: as above; type: cell-based; settings: Streptococcus pyrgenes, in vivo strain, read-out: Spy MIC
Method: as §2

[2] = ATCC51907, Haemophilus influenzae
[3] = Staphylococcus aureus, Staphylococcus aureus in vivo strain, MSQS, read-out: Sau(d) MIC
[4] = Staphylococcus aureus, in vivo strain, MRQR, read-out: Sau(e) MIC
[5] = Staphylococcus aureus, serum, read-out: Sau(f) MIC
[6] = in vivo strain (footnote b), read-out: Spn(b) MIC
[7] = in vivo strain (footnote c), read-out: Spn(c) MIC

| Structure (SMILES) | MIC (Klebsiella pneumoniae) | MIC (Escherichia coli) | MIC (Pseudomonas aeruginosa) | MIC (Haemophilus influenzae; [2]) | IC50 [1] | MIC (Staphylococcus aureus; [3]) | MIC (Staphylococcus aureus; [4]) | MIC (Staphylococcus aureus; [5]) | MIC (Streptococcus pneumoniae; [6]) | MIC (Streptococcus pneumoniae; [7]) | MIC (Streptococcus pyogenes; Streptococcus pyogenes) | Pae MIC (Pseudomonas aeruginosa; PAO1) | MIC (Haemophilus influenzae) | MIC (Staphylococcus aureus; Staphylococcus aureus in vivo strain, MSQS, read-out: Sau(d) MIC) | MIC (Streptococcus pyogenes) |
| --- | --- | --- | --- | --- | --- | --- | --- | --- | --- | --- | --- | --- | --- | --- | --- |
| C[C@@H]1CN2c3c(cc4c(N5C(=O)OC[C@@H]5[C@H](C)O)noc4c3F)CC3(C(=O)NC(=O)NC3=O)[C@H]2[C@H](C)O1 [Example 70] | > 200 µM | 200 µM (≈ 103 µg/mL) | > 200 µM | 1.6 µM (≈ 0.828 µg/mL) | 610 nM | 12 µM (≈ 6.21 µg/mL) | 50 µM (≈ 25.9 µg/mL) | 25 µM (≈ 12.9 µg/mL) | 1.6 µM (≈ 0.828 µg/mL) | 3.1 µM (≈ 1.6 µg/mL) | 1.6 µM (≈ 0.828 µg/mL) |  |  |  |  |
| C[C@@H]1CN2c3c(cc4c(N5C(=O)O[C@@H](C)[C@H]5C)noc4c3F)CC3(C(=O)NC(=O)NC3=O)[C@H]2[C@H](C)O1 [Example 24] | > 200 µM | 50 µM (≈ 25.1 µg/mL) | > 200 µM | 3.1 µM (≈ 1.55 µg/mL) | > 2100 nM | 0.39 µM (≈ 0.196 µg/mL) | 1.6 µM (≈ 0.802 µg/mL) | 1.6 µM (≈ 0.802 µg/mL) | 1.6 µM (≈ 0.802 µg/mL) | 1.6 µM (≈ 0.802 µg/mL) | 0.78 µM (≈ 0.391 µg/mL) |  |  |  |  |
| C[C@@H]1CN2c3c(cc4c(N5C[C@H](CO)OC5=O)noc4c3F)CC3(C(=O)NC(=O)NC3=O)[C@H]2[C@H](C)O1 [Example 37, (2R,4S,4aS)-11-Fluoro-8-[(5R)-5-(hydroxymethyl)-2-oxo-1,3-oxazolidin-3-yl]-2,4-dimethyl-1,2,4,4a-tetrahydro-2′H,6H-spiro[1,4-oxazino[4,3-a][1,2]oxazolo[4,5-g]quinoline-5,5′-pyrimidine]-2′,4′,6′(1′H,3′H)-trione] | > 200 µM | 200 µM (≈ 101 µg/mL) | > 200 µM | 0.39 µM (≈ 0.196 µg/mL) | 120 nM | 3.1 µM (≈ 1.56 µg/mL) | 25 µM (≈ 12.6 µg/mL) | 6.2 µM (≈ 3.12 µg/mL) | 0.39 µM (≈ 0.196 µg/mL) | 0.78 µM (≈ 0.393 µg/mL) | 0.39 µM (≈ 0.196 µg/mL) |  |  |  |  |
| C[C@@H]1CN2c3c(cc4c(N5C[C@@H](c6ccccn6)OC5=O)noc4c3F)CC3(C(=O)NC(=O)NC3=O)[C@H]2[C@H](C)O1 [Example 54, (2R,4S,4aS)-11-fluoro-2,4-dimethyl-8-((S)-2-oxo-5-(pyridin-2-yl)oxazolidin-3-yl)-2,4,4a,6-tetrahydro-1H,1′H-spiro[isoxazolo[4,5-g][1,4]oxazino[4,3-a]quinoline-5,5′-pyrimidine]-2′,4′,6′(3′H)-trione] | > 200 µM | 100 µM (≈ 55.1 µg/mL) | > 200 µM | 3.1 µM (≈ 1.71 µg/mL) | 940 nM | 0.39 µM (≈ 0.215 µg/mL) | 0.78 µM (≈ 0.429 µg/mL) | 1.6 µM (≈ 0.881 µg/mL) | 0.78 µM (≈ 0.429 µg/mL) | 0.78 µM (≈ 0.429 µg/mL) | 0.78 µM (≈ 0.429 µg/mL) |  |  |  |  |
| COC[C@H]1CN(c2noc3c(Cl)c4c(cc23)CC2(C(=O)NC(=O)NC2=O)[C@H]2[C@H](C)O[C@H](C)CN42)C(=O)O1 [Example 21, (2R,4S,4aS)-11-Chloro-8-[(5R)-4-(methoxymethyl)-2-oxo-1,3-oxazolidin-3-yl]-2,4-dimethyl-1,2,4,4a-tetrahydro-2′H,6H-spiro[1,4-oxazino[4,3-a][1,2]oxazolo[4,5-g]quinoline-5,5′-pyrimidine]-2′,4′,6′(1′H,3′H)-trione] | 200 µM (≈ 107 µg/mL) | 50 µM (≈ 26.7 µg/mL) | > 200 µM | 1.6 µM (≈ 0.854 µg/mL) | 540 nM | 0.78 µM (≈ 0.416 µg/mL) | 3.1 µM (≈ 1.66 µg/mL) | 3.1 µM (≈ 1.66 µg/mL) | 1.6 µM (≈ 0.854 µg/mL) | 1.6 µM (≈ 0.854 µg/mL) | 0.78 µM (≈ 0.416 µg/mL) |  |  |  |  |
| C[C@@H]1CN2c3c(cc4c(N5C[C@H](CF)OC5=O)noc4c3F)CC3(C(=O)NC(=O)NC3=O)[C@H]2[C@H](C)O1 [Example 38, (2R,4S,4aS)-11-Fluoro-8-[(5R)-5-(fluoromethyl)-2-oxo-1,3-oxazolidin-3-yl]-2,4-dimethyl-1,2,4,4a-tetrahydro-2′H,6H-spiro[1,4-oxazino[4,3-a][1,2]oxazolo[4,5-g]quinoline-5,5′-pyrimidine]-2′,4′,6′(1′H,3′H)-trione] | 200 µM (≈ 101 µg/mL) | 25 µM (≈ 12.6 µg/mL) | > 200 µM | 0.39 µM (≈ 0.197 µg/mL) | 67 nM | < 0.2 µM | 1.65 µM (≈ 0.834 µg/mL) | 0.78 µM (≈ 0.394 µg/mL) | 0.39 µM (≈ 0.197 µg/mL) | 0.39 µM (≈ 0.197 µg/mL) | < 0.2 µM |  |  |  |  |
| C[C@@H]1CN2c3c(cc4c(N5C(=O)OC[C@@H]5C#N)noc4c3F)CC3(C(=O)NC(=O)NC3=O)[C@H]2[C@H](C)O1 [Example 41, (4S)-3-[(2R,4S,4aS)-11-Fluoro-2,4-dimethyl-2′,4′,6′-trioxo-1,1′,2,3′,4,4′,4a,6′-octahydro-2′H,6H-spiro[1,4-oxazino[4,3-a][1,2]oxazolo[4,5-g]quinoline-5,5′-pyrimidin]-8-yl]-2-oxo-1,3-oxazolidine-4-carbonitrile] | > 200 µM | 25 µM (≈ 12.5 µg/mL) | > 200 µM | 0.78 µM (≈ 0.389 µg/mL) | 460 nM | 0.78 µM (≈ 0.389 µg/mL) | 1.6 µM (≈ 0.797 µg/mL) | 1.6 µM (≈ 0.797 µg/mL) | 0.39 µM (≈ 0.194 µg/mL) | 0.78 µM (≈ 0.389 µg/mL) | 0.78 µM (≈ 0.389 µg/mL) |  |  |  |  |
| CON=C[C@H]1CN(c2noc3c(F)c4c(cc23)CC2(C(=O)NC(=O)NC2=O)[C@H]2[C@H](C)O[C@H](C)CN42)C(=O)O1 [Example 43] | > 100 µM | 50 µM (≈ 26.5 µg/mL) | > 100 µM | 1.6 µM (≈ 0.849 µg/mL) | 440 nM | 0.39 µM (≈ 0.207 µg/mL) | 0.78 µM (≈ 0.414 µg/mL) | 1.6 µM (≈ 0.849 µg/mL) | 0.78 µM (≈ 0.414 µg/mL) | 1.6 µM (≈ 0.849 µg/mL) | 0.78 µM (≈ 0.414 µg/mL) |  |  |  |  |
| COC[C@H]1COC(=O)N1c1noc2c(F)c3c(cc12)CC1(C(=O)NC(=O)NC1=O)[C@H]1[C@H](C)O[C@H](C)CN31 (single isomer, unassigned) [Example 67] | >200 µM | 25 µM (≈ 12.9 µg/mL) |  |  | 330 nM |  | 0.55 µM (≈ 0.285 µg/mL) | 0.55 µM (≈ 0.285 µg/mL) | 0.4 µM (≈ 0.207 µg/mL) | 0.55 µM (≈ 0.285 µg/mL) |  | >200 µM | 0.55 µM (≈ 0.285 µg/mL) | 0.28 µM (≈ 0.145 µg/mL) | 0.28 µM (≈ 0.145 µg/mL) |
| C[C@@H]1CN2c3c(cc4c(N5C(=O)OC[C@H]5c5cnccn5)noc4c3F)CC3(C(=O)NC(=O)NC3=O)[C@H]2[C@H](C)O1 [Example 61, (2R,4S,4aS)-11-Fluoro-2,4-dimethyl-8-((R)-2-oxo-4-(pyrazin-2-yl)oxazolidin-3-yl)-2,4,4a,6-tetrahydro-1H,1′H-spiro[isoxazolo[4,5-g][1,4]oxazino[4,3-a]quinoline-5,5′-pyrimidine]-2′,4′,6′(3′H)-trione] | > 200 µM | 100 µM (≈ 55.1 µg/mL) | > 200 µM | < 0.2 µM | 340 nM | 0.78 µM (≈ 0.43 µg/mL) | 3.1 µM (≈ 1.71 µg/mL) | 1.6 µM (≈ 0.882 µg/mL) | 0.78 µM (≈ 0.43 µg/mL) | 0.78 µM (≈ 0.43 µg/mL) | 0.78 µM (≈ 0.43 µg/mL) |  |  |  |  |
